Experimental data: the NIST ThermoML archive (doi:10.1016/j.jct.2016.09.026)

Key:
[1] = molar heat capacity at constant pressure; conditions: 101.33 kPa, Crystal, Small sample (50 mg) DSC
[2] = Crystal
[3] = Molar enthalpy of transition or fusion; conditions: Crystal; DSC
[4] = molar enthalpy of vaporization or sublimation; conditions: 381.12 K; Crystal; Static calorimetry

CCC(=O)c1ccc(O)cc1 [1-(4-hydroxyphenyl)-1-propanone]
Conditions | Normal melting temperature [°C] | molar heat capacity at constant pressure [J/K/mol]
[1], 288.66 K | – | 188.2
[1], 289.98 K | – | 188.2
[1], 291.28 K | – | 189.2
[1], 292.55 K | – | 189.9
[1], 293.82 K | – | 190.1
[1], 295.08 K | – | 191.4
[1], 296.34 K | – | 192.1
[1], 297.6 K | – | 192.7
[1], 298.85 K | – | 192.9
[1], 300.11 K | – | 193.6
[1], 301.36 K | – | 194.5
[1], 302.61 K | – | 195.3
[1], 303.87 K | – | 196.9
[1], 305.13 K | – | 197.5
[1], 306.38 K | – | 198.3
[1], 307.64 K | – | 198.5
[1], 308.89 K | – | 199.3
[1], 310.14 K | – | 199.8
[1], 311.39 K | – | 201
[1], 312.64 K | – | 201.7
[1], 313.9 K | – | 202.7
[1], 315.15 K | – | 203.5
[1], 316.4 K | – | 203.9
[1], 317.65 K | – | 204.9
[1], 318.9 K | – | 204.9
[1], 320.15 K | – | 206.1
[1], 321.41 K | – | 206.9
[1], 322.66 K | – | 207.6
[1], 323.91 K | – | 208.3
[1], 325.16 K | – | 209.1
[1], 326.41 K | – | 209.8
[1], 327.66 K | – | 210.5
[1], 328.91 K | – | 211.5
[1], 330.16 K | – | 212
[1], 331.41 K | – | 212.6
[1], 332.66 K | – | 213.6
[1], 333.91 K | – | 214.1
[1], 335.16 K | – | 215
[1], 336.41 K | – | 216.1
[1], 337.66 K | – | 216.6
[1], 338.91 K | – | 217.2
[1], 340.16 K | – | 217.3
[1], 341.41 K | – | 218.3
[1], 342.66 K | – | 219.2
[1], 343.91 K | – | 220.2
[1], 345.16 K | – | 220.7
[1], 346.41 K | – | 222
[1], 347.66 K | – | 222.2
[1], 348.91 K | – | 223.1
[1], 350.15 K | – | 223.8
[1], 351.4 K | – | 225
[1], 352.65 K | – | 225.9
[1], 353.9 K | – | 226.5
[1], 355.15 K | – | 226.9
[1], 356.4 K | – | 227.5
[1], 357.65 K | – | 228.2
[1], 358.9 K | – | 228.9
[1], 360.15 K | – | 229.6
[1], 361.4 K | – | 230.9
[1], 362.65 K | – | 231.4
[1], 363.9 K | – | 232.2
[1], 365.15 K | – | 232.7
[1], 366.39 K | – | 233.5
[1], 367.65 K | – | 235.1
[1], 368.9 K | – | 235.7
[1], 370.15 K | – | 236.6
[1], 371.4 K | – | 237.2
[1], 372.65 K | – | 237.9
[1], 373.9 K | – | 238.7
[1], 375.15 K | – | 239.3
[1], 376.4 K | – | 240.8
[1], 377.64 K | – | 241.3
[1], 378.89 K | – | 242.4
[1], 380.14 K | – | 243.1
[1], 381.39 K | – | 243.7
[1], 382.64 K | – | 244.3
[1], 383.89 K | – | 245.9
[2], DTA | 148.5 | –

Conditions | mass density [kg/m3]
[2], 298 K, 101.33 kPa, X-ray diffraction | 1273.1

Conditions | Molar enthalpy of transition or fusion [kcal/mol] | molar enthalpy [kcal/mol]
[3] | 7.56 | –
[4] | – | 26.87
